The nature of series [1]: Acute toxicity, fed orally for two weeks. Particulars: Fisetin 50 mg/kg, 3c 25 and 50 mg/kg body weight. The format is in vivo. Here is the method:
Fisetin analogue 3c was used to assess the potential toxicity of these analogues in a pre-clinical model. To test the acute toxicity, Fisetin (50 mg/kg body weight), analogue 3c (25 mg/kg and 50 mg/kg body weight), and vehicle control (5% DMSO, 45% PEG-300 and 50% saline) was fed orally for two weeks. Abnormal clinical signs such as decreased motor activity, sensory reflection, body weight, food intake, and water intake were monitored during the treatment period. An increase in body weight was observed among all groups throughout the treatment period (FIG. 7A). […] This variation could be due to consistent frequency of dosage.

In series [2] the test system is lipid peroxidation (MDA formation). In words: Hepatotoxicity: lipid peroxidation assay on microsomal liver fraction (TBARS). Format: in vivo, swiss albino mice. Particulars: microsomal liver fraction of treated mice. Here is the method: (§1) Hepatotoxicity is considered to be one of the major challenges for drug development schemes. The liver is the primary organ for the metabolism or biotransformation of a given drug. To assess the hepatotoxicity of these compounds, the effects of Fisetin and analogue 3c on various hepatic enzymes was assessed.
(§2) A lipid peroxidation assay was performed on microsomal liver fraction and determined in terms of TBARS formation. […] The modulatory effects of Fisetin and analogue 3c were determined on the specific activities of cytochrome b5 reductase (Cytb5R) and cytochrome P450 reductase (CytP450R), phase I enzyme of xenobiotic metabolism. Fisetin and analogue 3c caused reduction in the specific activity of cytochrome b5 reductase. Fisetin decreased Cytb5R specific activity by 66% whereas analogue 3c (50 mg/kg) caused a 36% reduction in specific activity (FIG. 7F). An increase in specific activity of CytP450R by Fisetin and analogue 3c was observed. Fisetin and analogue 3c (50 mg/kg) increased the specific activity by 15% and 13%, respectively (FIG. 7G). Next, the specific activities of phase II enzymes, glutathione S-transferase (GST) and reduced glutathione (GSH) were measured. […] Fisetin and analogue 3c (50 mg/kg) caused a decrease in specific activity of GSH by 34% and 7%, respectively (FIG. 7I). […] These analogues are therefore likely to be effective and safe phytochemicals.

In another series the test system is SOD. In words: Hepatotoxicity: specific activity of SOD. Format: in vivo, swiss albino mice. Particulars: liver of treated mice. Here is the method:
as §1, §2

Series [3] relates to cytochrome b5 reductase (Cytb5R). As to the kind of experiment: Hepatotoxicity: specific activity of cytochrome b5 reductase. The format is in vivo, swiss albino mice. Particulars: 50 mg/kg orally, two weeks. The protocol: as §1, §2
For series [4], the system named is cytochrome P450 reductase (CytP450R). As to the kind of experiment: Hepatotoxicity: specific activity of cytochrome P450 reductase. The format is in vivo, swiss albino mice. Conditions: 50 mg/kg orally, two weeks. The protocol:
as §1, §2

The test system of series [5] is glutathione S-transferase (GST). In words: Hepatotoxicity: specific activity of glutathione S-transferase. Conditions: liver of treated mice. The format is in vivo, swiss albino mice. The protocol: as §1, §2
Series [6] deals with reduced glutathione (GSH). In words: Hepatotoxicity: reduced glutathione. The format is in vivo, swiss albino mice. Particulars: 50 mg/kg orally, two weeks. The protocol: as §1, §2
Series [7] has as its system B(a)P-induced lung carcinogenesis. As to the kind of experiment: B(a)P-induced lung carcinogenesis, Initiation and Promotion Protocols. Format: in vivo, Swiss albino mice. An excerpt: To assess whether Fisetin and its 4-bromo-Fisetin analogue (Fisetin analogue 3c) have anticarcinogenesis activity and if any toxicity in terms of water and food consumption, and body weight, Benzo[a]pyrene [B(a)P] induced lung carcinogenesis in Swiss albino mice were employed in the study. Along with the antitumor activity of the agents, the body weight, food and water intake in different treatment groups were monitored on regular intervals and analysed.
There were six different treatment groups in the study including, (1) control, (2) B(a)P, (3) Fisetin+B(a)P, (4) Fisetin analogue 3c+B(a)P, (5) B(a)P+Fisetin and (6) B(a)P+Fisetin analogue 3c.
Groups 3 and 4 represent the Initiation Protocol (agents treatment started 1 week before carcinogen treatment and continued 1 week after the last dose of the carcinogen). Groups 5 and 6 represent the Promotion Protocol (agents treatment started after 3 weeks of the carcinogen treatment). The B(a)P was given orally twice a week for 4 weeks at 50 mg/kg body weight dose, whereas Fisetin and Fisetin analogue (3c) were administered orally at 25 mg/kg body weight thrice weekly (see FIG. 9).

The conditions of series [8]: cited from earlier work.
The subject of series [9] is 22rv1 prostate carcinoma cells. Particulars: retained on methylation of the 3-hydroxy group; cited from earlier work.
Series [10] relates to a range of cancer cell lines. Conditions: reported in the literature; cited from earlier work.

Each structure is given as a SMILES string.

In the case of `O=c1c(O)c(-c2ccc(O)c(O)c2)oc2cc(O)ccc12` [Fisetin], in [1], the “toxicity in mice, in words” value is “did not cause toxicity”. Moreover, the “MDA formation (TBARS)” value in [2] is reported as “No significant change”. For the same compound, the “specific activity of SOD” value in the series on SOD is “moderately induced”. Also, the “reduction in specific activity of cytochrome b5 reductase” value in [3] is reported as 66%. The “increase in specific activity of CytP450R” value in series [4] is given as 15%. In series [5], the “specific activities of GST compared to the control group” value is “did not cause significant change”. The “decrease in specific activity of GSH” value in series [6] is on record as 34%. Moreover, in series [7] (25 mg/kg orally thrice weekly), the “systemic toxicity during long-term application” value was “did not show any systemic toxicity” and the “tumorigenic features in lung histology (nucleus size, cytoplasmic content, alveoli)” value is on record as “reversal of the tumorigenic features”. Moreover, the “tumor incidence, histopathology of H&E stained serial sections” value in series [7] (compared to the carcinogen treated group) is reported as “less”. In addition, in series [7] (tumor initiation phase / initiation protocol), the “area or size of tumor lesions, in words” value was “not effective as compared to the analogue”. In addition, in series [7] (versus B(a)P group), the “tumor lesions per mouse and total number of lesions per group, in words” value is “strongly reduced”. For the same compound, the “pKa of the 4′-hydroxyl group” value in [8] is ~ 9.4. Besides, the “pKa of the 7-hydroxyl group” value in series [8] (most acidic position) was ~ 7.3.
`COc1cc(-c2oc3ccccc3c(=O)c2O)cc(OC)c1OC` [TMFol]: in series [9], the “activity against 22rv1 prostate carcinoma cells” value is recorded as “low micromolar activity”.
As to `O=C1C[C@@H](c2ccc(O)cc2)Oc2cc(O)cc(O)c21` [navingenin], the “activity against cancer cell lines compared to apigenin” value in [10] is “inactive”.

Values taken from patent US12715851B2, “4′-substituted analogues of fisetin and their use in the treatment of cancer” (Stellenbosch University, priority 2020, dated 2026).
